The supplement of paper PMC8882468
Where “and” joins values, the source holds several entries; their conditions need not be identical. Equal entries are not always repeated.

Legend:
Assay in all cases: CTG-3D luminescence at 96 h relative to day-0 seeding control (ratio to day 0); higher = more growth / less cytotoxicity; PDxO 3D drug screen (set 2), 96 h, CTG-3D normalised to day-0 seeding control.
HCI-003.E2 = test system: HCI-003.E2 (organoid from an ER-positive breast cancer xenograft)
MDA-MB-231 = test system: MDA-MB-231
HCI-001 = test system: HCI-001 (organoid from a triple-negative breast cancer xenograft)
HCI-005.E2 = test system: HCI-005.E2 (organoid from a breast cancer xenograft with a HER2-positive history)
HCI-024 = test system: HCI-024 (organoid from a breast cancer xenograft)
HCI-027 = test system: HCI-027 (organoid from a triple-negative breast cancer xenograft)

CCOc1ccn(-c2ccc(F)cc2)c(=O)c1C(=O)Nc1ccc(Oc2ccnc(N)c2Cl)c(F)c1 [ASLAN002]
CTG-3D luminescence at 96 h
Conditions	12.5 pM	0.00025 µM	0.005 µM	0.1 µM	1 µM	10 µM	100 µM	625 fM
HCI-003.E2	2.68	2.58	2.76	2.78	2.47	1.97	1.09	2.78
HCI-005.E2	1.72	2.16	2.37	2.74	2.59	2.35	1.45	2.25
MDA-MB-231	5.15	5.18	5.26	5.15	5.49	4.89	3.8	5.36

CTG-3D luminescence at 96 h
Conditions	12.5 pM	0.00025 µM	0.005 µM	0.1 µM	1 µM	10 µM	100 µM	625 fM
HCI-001, days in culture: 365	2.86	2.78	2.5	3.1	2.44	1.84	1.6	1.69
HCI-001, days in culture: 397	1.79	2.1	2.38	1.93	2.27	2.43	1.01	1.87
HCI-001, days in culture: 401	1.59	1.66	1.76	1.83	1.66	1.29	0.84	1.76
HCI-024, days in culture: 202	1.14	1.03	1.19	1.27	0.701	1.41	0.658	1.61
HCI-024, days in culture: 231	0.919	1.2	1.13	1.05	1.25	1.02	0.471	1.06
HCI-024, days in culture: 254	2.48	0.889	0.968	1.46	1.85	1.96	1	2.45
HCI-027, days in culture: 145	1.36	2.38	1.99	2.27	1.53	1.16	0.692	1.71
HCI-027, days in culture: 158	2.07	1.82	2.16	2.7	1.65	2.11	1.35	4.78
HCI-027, days in culture: 164	1.59	1.98	3.29	1.48	1.84	1.29	0.787	1.91
HCI-027, days in culture: 176	3.7	2.85	1.77	1.65	2.11	1.09	0.699	2.39
HCI-027, days in culture: 186	2	1.38	1.53	2.45	0.755	0.892	0.737	2

C[C@@H](Nc1cc(F)cc(F)c1)c1cc(C(=O)N(C)C)cc2c(=O)cc(N3CCOCC3)oc12 [AZD-8186]
CTG-3D luminescence at 96 h
Conditions	12.5 pM	0.00025 µM	0.005 µM	0.1 µM	1 µM	10 µM	100 µM	625 fM
HCI-003.E2	2.53	2.56	2.18	2.38	2.13	1.28	0.0452	2.58
HCI-005.E2	1.82	2.18	2.26	2.54	2.24	1.51	0.592	1.97
MDA-MB-231	5.61 and 5.06	5.71 and 5.14	5.56 and 5.16	5.39 and 4.98	5.11 and 4.76	4.68 and 4.38	2.77 and 2.47	5.47 and 5.15

CTG-3D luminescence at 96 h
Conditions	12.5 pM	0.00025 µM	0.005 µM	0.1 µM	1 µM	10 µM	100 µM	625 fM
HCI-001, days in culture: 365	2.63	2.2	2.38	2.83	1.84	1.13	1.08	1.53
HCI-001, days in culture: 397	1.79	2.6	2.23	2.14	1.81	1.69	0.737	1.6
HCI-001, days in culture: 401	1.64	1.69	1.59	1.76	1.28	1.24	0.924	1.69
HCI-024, days in culture: 202	1.88	0.916	0.693	1.33	0.84	1.61	0.461	1.39
HCI-024, days in culture: 231	1.33	1.25	1.21	1.01	1.32	0.93	0.399	1.35
HCI-024, days in culture: 254	1.17	1.68	1.81	2.04	0.901	1.55	0.743	1.01
HCI-027, days in culture: 145	1.31	2.65	1.81	1.94	0.882	1.12	0.387	1.74
HCI-027, days in culture: 158	0.987	2.74	2.32	1.39	1.24	1.87	0.581	4.36
HCI-027, days in culture: 164	1.52	0.955	2.29	2.94	1.28	1.36	0.618	1.46
HCI-027, days in culture: 176	2.9	2.55	1.1	1.9	1.15	0.842	0.201	1.89
HCI-027, days in culture: 186	1.9	2.1	2.54	1.7	0.519	1.46	0.286	2.6

Cc1c(CN2CCN(C(=O)[C@H](C)O)CC2)sc2c(N3CCOCC3)nc(-c3cnc(N)nc3)nc12 [apitolisib]
CTG-3D luminescence at 96 h
Conditions	12.5 pM	0.00025 µM	0.005 µM	0.1 µM	1 µM	10 µM	100 µM	625 fM
HCI-003.E2	2.46	2.27	2.31	1.31	0.0639	0.0361	0.0424	2.82
HCI-005.E2	1.87	2.22	2.35	1.75	0.429	0.481	0.444	2.21
MDA-MB-231	5.6 and 5.03	5.7 and 4.98	5.72 and 5.32	5.01 and 4.5	2.91 and 2.98	2.31 and 2.38	0.873 and 0.875	5.53 and 5.09

CTG-3D luminescence at 96 h
Conditions	12.5 pM	0.00025 µM	0.005 µM	0.1 µM	1 µM	10 µM	100 µM	625 fM
HCI-001, days in culture: 365	2.58	2.24	2.1	1.76	0.879	0.659	0.623	1.4
HCI-001, days in culture: 397	1.85	1.88	1.62	1.89	0.725	0.643	0.29	1.38
HCI-001, days in culture: 401	1.46	1.75	1.41	1.57	0.609	0.676	0.517	1.65
HCI-024, days in culture: 202	1.67	1.17	1	1.17	0.494	1.03	0.293	1.42
HCI-024, days in culture: 231	1.04	1.28	1.23	1.04	0.577	0.527	0.227	1.38
HCI-024, days in culture: 254	1.36	0.995	0.856	2.4	0.795	0.608	0.25	1.94
HCI-027, days in culture: 145	1.36	2	1.85	1.14	0.404	0.297	0.262	1.64
HCI-027, days in culture: 158	2.21	2.37	2.99	2.07	0.609	1.12	0.342	6.72
HCI-027, days in culture: 164	1.35	2.18	2.6	1.92	0.894	0.441	0.389	1.48
HCI-027, days in culture: 176	3.68	2.63	1.06	1.66	0.9	0.431	0.271	1.29
HCI-027, days in culture: 186	1.37	1.93	1.13	0.973	0.319	0.706	0.112	2.34

Nc1cc(C(F)(F)F)c(-c2cc(N3CCOCC3)nc(N3CCOCC3)n2)cn1 [buparlisib]
CTG-3D luminescence at 96 h
Conditions	12.5 pM	0.00025 µM	0.005 µM	0.1 µM	1 µM	10 µM	100 µM	625 fM
HCI-003.E2	2.55	2.29	2.6	2.53	0.705	0.037	0.0142	2.71
HCI-005.E2	1.84	2.58	2.64	3.03	1.45	0.703	0.594	2.11
MDA-MB-231	5.18	5.23	5.28	5.17	4.45	2.28	2.15	5.31

CTG-3D luminescence at 96 h
Conditions	12.5 pM	0.00025 µM	0.005 µM	0.1 µM	1 µM	10 µM	100 µM	625 fM
HCI-001, days in culture: 365	3.09	2.29	2.5	3.19	1.82	0.687	0.646	1.89
HCI-001, days in culture: 397	1.95	2.38	2.48	2.22	1.46	0.715	0.507	1.44
HCI-001, days in culture: 401	1.47	1.87	1.41	1.86	1.11	0.572	0.512	1.76
HCI-024, days in culture: 202	0.94	1.8	0.863	1.75	0.649	0.995	0.453	1.69
HCI-024, days in culture: 231	0.962	1.28	0.905	1.7	0.751	0.659	0.357	1.23
HCI-024, days in culture: 254	1.89	0.93	0.779	1.12	1.08	0.637	0.959	2.39
HCI-027, days in culture: 145	1.54	1.52	1.25	1.43	0.692	0.328	0.299	2.3
HCI-027, days in culture: 158	2.38	2.8	2.6	2.57	0.949	0.818	0.172	2.61
HCI-027, days in culture: 164	1.85	1.65	1.59	2.16	0.625	0.478	0.612	1.57
HCI-027, days in culture: 176	4.08	3.24	0.833	1.54	0.26	0.384	0.144	2.31
HCI-027, days in culture: 186	1.86	1.61	2.44	1.65	0.528	0.223	0.169	2.21
